Columns and labels:
Leukotriene D₄ Receptor = biological target: T1, Leukotriene D₄ Receptor (Cavia porcellus, UniProt Q2NNR5); test: Leukotriene D₄ Receptor Binding Assay (Guinea Pig Lung Homogenate), displacement of ³H-LTD₄; settings: guinea pig lung membrane homogenate, 3.5 nM ³H-LTD₄, 20°C, 30 minutes; read-out: LTD₄ Binding IC₅₀
T1 construct: from tissue; host or cells: guinea pig lung crude membrane fraction
T1 sequence (Q2NNR5 1-340): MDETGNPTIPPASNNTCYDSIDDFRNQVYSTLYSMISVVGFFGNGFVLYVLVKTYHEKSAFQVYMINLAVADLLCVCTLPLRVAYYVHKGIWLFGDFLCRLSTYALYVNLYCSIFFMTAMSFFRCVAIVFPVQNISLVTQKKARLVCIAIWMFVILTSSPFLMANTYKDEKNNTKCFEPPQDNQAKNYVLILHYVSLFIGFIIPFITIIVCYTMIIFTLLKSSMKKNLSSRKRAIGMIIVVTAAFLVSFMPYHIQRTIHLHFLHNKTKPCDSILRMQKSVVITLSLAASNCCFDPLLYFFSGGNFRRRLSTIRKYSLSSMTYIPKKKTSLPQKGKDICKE
Experimental: Leukotriene D₄ Receptor Binding Assay (Guinea Pig Lung Homogenate) […]
a) Preparation of membrane homogenate
Male albino guinea pigs (Hartley strain, 400-500 g body weight) were sacrificed by decapitation. The lungs were removed, frozen in liquid nitrogen and stored at -70° until use. The frozen tissue (5 g) was thawed, minced into small pieces and rinsed in phosphate-buffered saline. The tissue was placed in 40 ml homogenization buffer containing 0.25 M sucrose, 10 mM Tris-HCl, (pH 7.5), and the following protease inhibitors: soybean trypsin inhibitor (5 µg/ml) bacitracin (100 µg/ml), benzamidine (10⁻³M) and phenylmethylsulfonyl fluoride ([…]). The protease inhibitors were included to inhibit proteolysis during the processes of homogenization and centrifugation. The tissue was then homogenized at 0-4°C with a Brinkman PT-20 polytron for a total of 1 minute (10 second pulses at a setting of 6). The homogenate was centrifuged (1000 x g for 10 minutes) to remove tissue clumps, unbroken cells and nuclei. The supernatant was recentrifuged at 30,000 x g for 30 minutes to yield pellets which were referred to as crude membrane fractions. This fraction was then resuspended in the incubation buffer (10 mM Pipes buffer, pH 7.5, 50 mM NaCl), homogenized in a Teflon homogenizer and recentrifuged at 30,000 x g for 30 minutes. The pellets were finally resuspended in the incubation buffer with a Teflon homogenizer at a concentration of 10 to 20 mg/ml of protein in the suspension. The concentrations of proteins were determined using the Biorad reaction kit. […]
b) Receptor-Ligand Binding Assay
Optimum assay conditions were determined with an assay mixture containing: Tyrode solution; 0.1% bovine serum albumin (BSA); 1 mM glycine; 1 mM cysteine; 3.5 nM ³H-LTD₄ and the membrane preparation (100-200 µg protein) in a final volume of 250 µl. The incubation was carried out at 20°C for 30 minutes. At 20°C, binding increased linearly with protein concentration, reached equilibrium in 20 minutes, was saturable, and reversible upon additions of unlabelled LTD₄. Separation of bound from free ³H-LTD₄ was performed by rapid filtration on GF/C glass fiber filters and washing with two 4 ml aliquots of Tyrode solutions containing 0.1% BSA. Radioactivity remaining on the filters was measured in 10 ml of Aquasol. Specific binding was defined as that displaced by 10⁻⁶M unlabelled LTD₄ and was 95% of total binding.

[1] = tested on: LTD₄-Induced Bronchoconstriction; test: Leukotriene-Induced Bronchoconstriction in Guinea Pigs - in vivo leukotriene D₄ (LTD) antagonist test, intravenous and oral testing; set-up: LTD₄-Induced Bronchoconstriction (ID₅₀) i.v. / LTD₄-Induced Bronchoconstriction (ID₅₀) p.o.: unit not given here; settings: for inhibition at 1 mg/kg / inhibition at 10 mg/kg: Cavia porcellus; for inhibition at 1 mg/kg: iv, 1 mg/kg i.v., 1 minute before LTD challenge (25 µg/kg i.v.), change in tracheal pressure; for Duration 10 mg/kg p.o. 4 hr.: inhibition with LTD challenge 4 hr. after administration; for Duration 10 mg/kg p.o. 8 hr.: inhibition with LTD challenge 8 hr. after administration; for Duration 10 mg/kg p.o. 18 hr.: inhibition with LTD challenge 18 hr. after administration; for inhibition at 10 mg/kg: 2 h, two hours prior to LTD challenge (25 µg/kg i.v.); for Duration 10 mg/kg p.o. 4 hr. / Duration 10 mg/kg p.o. 8 hr. / Duration 10 mg/kg p.o. 18 hr. / inhibition at 10 mg/kg: 10 mg/kg p.o.; for LTD₄-Induced Bronchoconstriction (ID₅₀) i.v.: intravenous route; for LTD₄-Induced Bronchoconstriction (ID₅₀) i.v. / LTD₄-Induced Bronchoconstriction (ID₅₀) p.o.: increasing doses, value in parentheses; for LTD₄-Induced Bronchoconstriction (ID₅₀) p.o.: oral route, two hours prior to challenge
Experimental: Leukotriene-Induced Bronchoconstriction in Guinea Pigs - In vivo leukotriene D₄ (LTD) antagonist test
Intravenous and Oral Testing
Male guinea pigs (Hartley strain Charles River) weighing 300-500 g were anesthetized with urethane (∼2 g/kg) intraperitoneally and a polyethylene cannula was inserted into the jugular vein for intravenous drug administration. Tracheal pressure (cm of H₂0) was recorded from a Statham pressure transducer (P 32 AA). Propranolol was administered 5 minutes prior to challenge with LTD. Two minutes later spontaneous breathing was arrested with succinylcholine chloride (1.2 mg/kg) administered intravenously and the animals were ventilated with a Harvard (Model #680) small animal respirator set a 40 breaths/min and 4.0 cc stroke volume. Control vehicle or test drug was administered through the cannula into the jugular vein 1 minute before the animals were challenged intravenously with a maximum constrictory dose of LTD (25 µg/kg) given intravenously. The change in tracheal pressure was averaged for control and drug-treated animals and percent inhibition was calculated. For determination of oral activity, animals were dosed with test compound or vehicle two hours prior to challenge with LTD (25 µg/kg. i.v.).
The relative potency (ID₅₀ values) of test compounds administered by the intravenous and oral route was determined by administering increasing doses of test compound. For determination of the time course of inhibition for various compounds, the time between administration of compound and challenge with LTD was varied. The time course of activity was calculated as the time when inhibition decreased to 40%.

Compound	IC50 (Leukotriene D₄ Receptor) [nM]	inhibition at 1 mg/kg [1] [%]	Duration 10 mg/kg p.o. 4 hr. [1]	Duration 10 mg/kg p.o. 8 hr. [1]	Duration 10 mg/kg p.o. 18 hr. [1]	inhibition at 10 mg/kg [1] [%]	LTD₄-Induced Bronchoconstriction (ID₅₀) i.v. [1]	LTD₄-Induced Bronchoconstriction (ID₅₀) p.o. [1]
O=C(O)CCC(=O)Nc1cccc(/C=C/c2nc(C3CC3)cs2)c1 [(E)-4-[[3-[2-(4-cyclopropyl-2-thiazolyl)ethenyl]phenyl]amino]-4-oxobutanoic acid]	4000	15 ± 4	–	–	–	–	–	–
CCC(CC)(CC(=O)Nc1cccc(/C=C/c2nc(C3CCCC3)cs2)c1)C(=O)O [(E)-4-[[3-[2-(4-cyclopentyl-2-thiazolyl)ethenyl]phenyl]amino]-2,2-diethyl-4-oxobutanoic acid]	60	99 ± 1	99+1	98+1	70±7	97 ± 1	0.08	0.34
CCC(CC)(CC(=O)Nc1cccc(/C=C/c2nc(C3CCCCC3)cs2)c1)C(=O)O [(E)-4-[[3-[2-(4-cyclohexyl-2-thiazolyl)ethenyl]phenyl]amino]-2,2-diethyl-4-oxobutanoic acid]	80	96 ± 2	69±12	81±9	38+4	87 ± 6	0.31	0.66
CC(CC(=O)Nc1cccc(/C=C/c2nc(C3CCC3)cs2)c1)C(=O)O (centres unmarked) [(E)-4-[[3-(2-(4-cyclobutyl-2-thiazolyl)ethenyl]phenyl]amino]-2-methyl-4-oxobutanoic acid]	110	–	–	–	–	–	(0.61)	–
CCC(CC)(CC(=O)Nc1cccc(/C=C/c2nc(C3CCC3)cs2)c1)C(=O)O [(E)-4-[[3-[2-(4-cyclobutyl-2-thiazolyl)ethenyl]phenyl]amino]-2,2-diethyl-4-oxobutanoic acid]	15	98	100±0	98±1	–	99 ± 1	0.13	0.12
CCC(CC)(CC(=O)Nc1cccc(/C=C/c2nc(C3CC3)cs2)c1)C(=O)O [(E)-4-[[3-[2-(4-cyclopropyl-2-thiazolyl)ethenyl]phenyl]amino]-2,2-diethyl-4-oxobutanoic acid]	20	94 ± 2	99±1	95±1	61±6	98 ± 1	0.18	1.1

Reference: patent publication EP0355353A2, “Cycloalkylthiazole derivatives” (F. HOFFMANN-LA ROCHE AG, priority 1988, dated 1990)
